This passage reports Kd results from publication PMC3741162, “Structures of Streptococcus pneumoniae PiaA and Its Complex with Ferrichrome Reveal Insights into the Substrate Binding and Release of High Affinity Iron Transporters” (PLoS ONE, 2013).

Where a SMILES comes first, the peptide text is derived from it. [ ]: non-standard residue; d: D form. Orn(N5-OH,N5-Ac) = CC(=O)N(O)CCC[C@H](N)C(=O)O

The term Kd denotes the equilibrium constant for the complex coming apart.

The target of test [1] is T1, PiaA (Streptococcus pneumoniae, UniProt A0A0H2UPT5, W63A).
T1 construct: gene SP_1032; residues Asn23-Lys341, N-terminal 6×His-tag
T1 sequence (A0A0H2UPT5 23-341 W63A): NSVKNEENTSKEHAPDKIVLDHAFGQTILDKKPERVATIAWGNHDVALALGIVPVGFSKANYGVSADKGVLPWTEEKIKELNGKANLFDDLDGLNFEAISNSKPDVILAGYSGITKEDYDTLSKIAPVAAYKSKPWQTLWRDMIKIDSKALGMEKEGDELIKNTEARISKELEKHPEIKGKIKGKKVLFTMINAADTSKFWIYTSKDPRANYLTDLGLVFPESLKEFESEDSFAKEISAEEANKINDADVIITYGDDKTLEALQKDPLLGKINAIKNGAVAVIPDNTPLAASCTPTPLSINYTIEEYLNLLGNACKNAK
The test is described as follows: ITC. It is filed as binding.

The target of test [2] is T2, PiaA (Streptococcus pneumoniae, UniProt A0A0H2UPT5).
T2 construct: gene SP_1032; residues Asn23-Lys341, N-terminal 6×His-tag
Briefly: ITC and crystal structure ([…] Å). The test is classed as binding.

For `CC(=O)N([O-])CCC[C@@H]1NC(=O)CNC(=O)CNC(=O)CNC(=O)[C@H](CCCN([O-])C(C)=O)NC(=O)[C@H](CCCN([O-])C(C)=O)NC1=O.[Fe+3]` [ferrichrome] (cyclo(GGG[Orn(N5-OH,N5-Ac)][Orn(N5-OH,N5-Ac)][Orn(N5-OH,N5-Ac)])), the dissociation constant (Kd) in test [1] is about 32.8 nM; in test [2], 5.8 ± 1.4 nM.
